Values quoted from earlier work as cited in patent publication US6485514B1 (priority 1997, dated 2002).
Where two headings read alike, the source gives them in different places.

Key:
[1] = test system: human colon cancer xenografts
[2] = administered intravenously, clinical trials
[3] = cremaphor vehicle, 6-hour IV infusion
[4] = test system: drug-refractory ovarian cancer; conditions: in vivo
[5] = patients

Q: Which “anticancer activity against human colon cancer xenografts” value [1] does the source give for CC[C@@]1(O)C(=O)OCc2c1cc1n(c2=O)Cc2cc3c(N)cccc3nc2-1 [9AC, 9-Amino-20(S)-Camptothecin] here?
A: Its value is “high anticancer activity”.

Q: Which “anticancer activity against human colon cancer xenografts” value [1] does the source give for CC[C@@]1(O)C(=O)OCc2c1cc1n(c2=O)Cc2cc3cc4c(cc3nc2-1)OCO4 [10,11 MD, 10,11-Methylendioxy-20(S)-Camptothecin] here?
A: The value was “high anticancer activity”.

Q: With CC[C@@](O)(C(=O)[O-])c1cc2n(c(=O)c1CO)Cc1cc3ccccc3nc1-2.[Na+] [CPT Na+, Camptothecin Sodium Salt] as the compound, how does the “clinical outcome (toxicity and potency)” value ([2]; listed as sodium salt of CPT) read?
A: Its value is “high toxicity and low potency”.

Q: What about the “clinical outcome (toxicity and potency)” value ([2]; Sodium Salt) of the same compound?
A: Its value is “ineffectiveness and the toxicity”.

Q: Which dose-limiting toxicity [3] does the source give for CC(=O)O[C@H]1C(=O)[C@@]2(C)[C@H]([C@H](OC(=O)c3ccccc3)[C@]3(O)C[C@H](OC(=O)[C@H](O)[C@@H](NC(=O)c4ccccc4)c4ccccc4)C(C)=C1C3(C)C)[C@]1(OC(C)=O)CO[C@@H]1C[C@@H]2O [taxol] here?
A: The dose-limiting toxicity was “neurotoxicity and leucopenia were dose-limiting”.

Q: What about the “activity against drug-refractory ovarian cancer” value [4] of the same compound?
A: The value was “active agent”.

Q: And the maximum tolerated dose ([5]; 6-hour IV infusion every 21 days)?
A: The maximum tolerated dose was 275 mg/m^2.

Q: What about the dose-limiting toxicity ([5]; 6-hour IV infusion) of the same compound?
A: The dose-limiting toxicity was “Myelosuppression was dose-limiting”.
